Experimental data taken from US20100273650A1, “Fungicidal Mixtures Comprising a Substituted 3-Hydroxymethylpyridine and a Further Fungicidal Compound” (BASF SE, priority 2007, published 2010).
Read-outs that look alike come from different tables or passages of the source.

Columns and labels:
Format in all cases: cell-based
Phytophthora infestans = assay: microbe, parasite or virus in culture; conditions: 168 h, read-out: Observed efficacy
Pyricularia oryzae = conditions: single active compound, 405 nm, 7 days after inoculation
Septoria tritici = assay: Activity against leaf blotch on wheat caused by Septoria tritici in the microtiter test (Septtr); conditions: single active compound, 405 nm, day 7 after inoculation

## N#Cc1c(Cl)c(Cl)c(Cl)c(C#N)c1Cl [Chlorothalonil, 2,4,5,6-tetrachloroisophthalonitrile]
Phytophthora infestans
  inhibition of growth at 0.25 ppm: 10%

## COC(=O)Nc1nc2ccccc2[nH]1 [Carbendazim, methyl (1H-benzoimidazol-2-yl)-carbamate]
Pyricularia oryzae; 0.25 ppm
  Observed efficacy: 24%

## CCCCCCCCCCCCCN1CC(C)OC(C)C1 (stereo not drawn) [Tridemorph, 2,6-dimethyl-4-tridecylmorpholine]
Septoria tritici; 1 ppm
  Observed efficacy: 3%

## OC(Cc1ccccc1Cl)(Cn1nc[nH]c1=S)C1(Cl)CC1 (stereo not drawn) [Prothioconazole, 2-[2-(1-chlorocyclopropyl)-3-(2-chlorophenyl)-2-hydroxypropyl]-2,4-dihydro-[1,2,4]triazole-3-thione]
Phytophthora infestans
  inhibition of growth at 16 ppm: 22%

## zinc propylenebis(dithiocarbamate) polymer [Propineb]
Pyricularia oryzae; 1 ppm
  Observed efficacy: 23%

## OC(c1cccnc1)c1c(-c2ccc(F)cc2F)csc1-c1ccc(F)cc1F (stereo not drawn) [I.16, 2,4-Bis-(2,4-Difluorophenyl)-3-[(3-pyridyl)hydroxymethyl]thiophene]
Phytophthora infestans
  inhibition of growth at 1 ppm: 0%
Pyricularia oryzae; 1 ppm
  Observed efficacy: 0%

## CCCCCCCCc1c(CC)nc2ncnn2c1N [5-ethyl-6-octyl-[1,2,4]triazolo[1,5-a]pyrimidine-7-ylamine]
Phytophthora infestans
  inhibition of growth at 0.25 ppm: 29%

## OC(c1cccnc1)c1c(-c2ccc(Cl)cc2)csc1-c1ccc(Cl)cc1 (stereo not drawn) [I.8, 2,4-Bis-(4-chlorophenyl)-3-[(3-pyridyl)hydroxymethyl]thiophene]
Septoria tritici; 0.063 ppm
  Observed efficacy: 4%
Septoria tritici; 0.25 ppm
  Observed efficacy: 10%
Phytophthora infestans
  inhibition of growth at 0.063 ppm: 2%
  inhibition of growth at 0.25 ppm: 1%
  inhibition of growth at 1 ppm: 4%
  inhibition of growth at 4 ppm: 19%
Pyricularia oryzae; 0.25 ppm
  Observed efficacy: 2%
Pyricularia oryzae; 1 ppm
  Observed efficacy: 0%

## Cc1ccc(C(C)NC(=O)[C@@H](NC(=O)OC(C)C)C(C)C)cc1 (stereo partly drawn) [Iprovalicarb, isopropyl [(1S)-2-methyl-1-(1-p-tolylethylcarbamoyl)propyl]carbamate]
Phytophthora infestans
  inhibition of growth at 1 ppm: 66%

## CC(Cc1ccc(C(C)(C)C)cc1)CN1C[C@@H](C)O[C@@H](C)C1 (mixture of isomers) [Fenpropimorph, (RS)-cis-4-[3-(4-tert-butylphenyl)-2-methylpropyl]-2,6-dimethylmorpholine]
Septoria tritici; 1 ppm
  Observed efficacy: 9%

## CNC(=O)/C(=N/OC)c1ccccc1COc1cc(C)ccc1C [Dimoxystrobin, (E)-2-(methoxyimino)-N-methyl-2-[α-(2,5-xylyloxy)-o-tolyl]acetamide]
Phytophthora infestans
  inhibition of growth at 0.25 ppm: 42%

## CC(C)(C)C(O)(CCc1ccc(Cl)cc1)Cn1cncn1 (stereo not drawn) [Tebuconazol, 1-(4-chlorophenyl)-4,4-dimethyl-3-[1,2,4]triazol-1-ylmethylpentan-3-ol]
Septoria tritici; 0.25 ppm
  Observed efficacy: 63%

## O=C1C2CC=CCC2C(=O)N1SC(Cl)(Cl)Cl (stereo not drawn) [Captan, 2-trichloromethylsulfanyl-3a,4,7,7a-tetrahydroisoindole-1,3-dione]
Phytophthora infestans
  inhibition of growth at 1 ppm: 26%
